Several values for one entry are separate records, joined by “and”; a condition that tells them apart may be missing. Equal values may be shown once.
How the values were obtained:
[1] = in vivo, iv, 0.5 mg/kg
[2] = target: SARS-CoV-2 Main Protease (SARS-CoV-2) (UniProt P0DTD1)

Row | Compound | AUC(0-inf) ([1]; rat) | AUC(0-t) ([1]; rat) | C0 ([1]; rat) | MRT inf ([1]; rat) | MRT last ([1]; rat) | Vd ([1]; rat) | clearance ([1]; rat) | half-life ([1]; rat) | IC50 [2] | AUC(0-inf) ([1]; mouse) | AUC(0-t) ([1]; mouse) | C0 ([1]; mouse) | MRT inf ([1]; mouse) | MRT last ([1]; mouse) | Vd ([1]; mouse) | clearance ([1]; mouse) | half-life ([1]; mouse)
1 | O=C(Nc1cncc2ccccc12)C1CN(S(=O)(=O)CCO)Cc2ccc(Cl)cc21 (stereo unspecified) | 0.241 µg·h/mL and 0.283 µg·h/mL | 0.236 µg·h/mL and 0.28 µg·h/mL | 0.441 µg/mL and 0.59 µg/mL | 56.2 min and 49.7 min | 44.2 min and 52.6 min | 1.72 L/kg and 1.66 L/kg | 2.08 L/h/kg and 1.78 L/h/kg | 47.1 min and 72.6 min | 0.232 µM |  |  |  |  |  |  |  | 
2 | O=C1CC(C(=O)Nc2cncc3ccccc23)c2cc(Cl)c(Cl)cc2N1 (stereo unspecified) |  |  |  |  |  |  |  |  | 0.196 µM and 0.356 µM | 0.199 µg·h/mL and 0.23 µg·h/mL | 0.197 µg·h/mL and 0.226 µg·h/mL | 0.268 µg/mL and 0.39 µg/mL | 44.9 min and 49.9 min | 42.4 min and 45.4 min | 1.88 L/kg and 1.81 L/kg | 2.51 L/h/kg and 2.17 L/h/kg | 34.4 min and 43.6 min
3 | Cc1cc2c(NC(=O)C3CCOc4ccc(Cl)cc43)cncc2s1 (stereo unspecified) | 0.122 µg·h/mL and 0.13 µg·h/mL | 0.118 µg·h/mL and 0.128 µg·h/mL | 0.342 µg/mL and 0.378 µg/mL | 26.3 min and 28.9 min | 25.1 min and 24.1 min | 1.76 L/kg and 1.52 L/kg | 3.65 L/h/kg and 3.48 L/h/kg | 22.4 min and 25 min | 0.228 µM |  |  |  |  |  |  |  | 
4 | COC(=O)N1Cc2ccc(Cl)cc2C(C(=O)Nc2cncc3ccccc23)C1 (stereo unspecified) | 0.152 µg·h/mL and 0.0942 µg·h/mL | 0.15 µg·h/mL and 0.0936 µg·h/mL | 0.411 µg/mL and 0.345 µg/mL | 20.4 min and 24.1 min | 22.5 min and 19.4 min | 1.32 L/kg and 1.82 L/kg | 3.29 L/h/kg and 5.32 L/h/kg | 20 min and 18.2 min | 0.224 µM |  |  |  |  |  |  |  | 
5 | CS(=O)(=O)N1Cc2ccc(Cl)cc2C(C(=O)Nc2cncc3cccc(F)c23)C1 (stereo unspecified) | 0.11 µg·h/mL and 0.136 µg·h/mL | 0.107 µg·h/mL and 0.134 µg·h/mL | 0.332 µg/mL and 0.376 µg/mL | 25.8 min and 25.9 min | 22.9 min and 23.5 min | 1.57 L/kg and 1.26 L/kg | 3.64 L/h/kg and 2.92 L/h/kg | 23.9 min and 20.4 min | 0.951 µM |  |  |  |  |  |  |  | 
6 | O=C(Cc1cccc(Cl)c1)Nc1cncc2cc[nH]c12 | 0.129 µg·h/mL and 0.176 µg·h/mL and 0.114 µg·h/mL | 0.128 µg·h/mL and 0.172 µg·h/mL and 0.113 µg·h/mL | 0.32 µg/mL and 0.47 µg/mL and 0.344 µg/mL | 29.9 min and 38.2 min and 23 min | 35.3 min and 27 min and 21.6 min | 2.47 L/kg and 1.46 L/kg and 2.1 L/kg | 3.87 L/h/kg and 2.9 L/h/kg and 5.47 L/h/kg | 42.8 min and 22.7 min and 19.5 min | 1.9 µM |  |  |  |  |  |  |  | 
7 | O=C(Cc1cccc(Cl)c1)Nc1cncc2c(F)cccc12 | 0.14 µg·h/mL and 0.138 µg·h/mL | 0.139 µg·h/mL and 0.136 µg·h/mL | 0.515 µg/mL and 0.498 µg/mL | 19.8 min and 20.1 min | 19.1 min and 18.7 min | 1.02 L/kg | 3.05 L/h/kg and 3.1 L/h/kg | 17.4 min and 18.2 min | 0.89 µM |  |  |  |  |  |  |  | 
8 | O=C1NCC(C(=O)Nc2cncc3ccccc23)c2cc(Cl)ccc21 (stereo unspecified) | 0.377 µg·h/mL and 0.428 µg·h/mL and 0.182 µg·h/mL | 0.374 µg·h/mL and 0.422 µg·h/mL and 0.18 µg·h/mL | 0.443 µg/mL and 0.648 µg/mL and 0.439 µg/mL | 57.1 min and 75 min and 37.4 min | 71.4 min and 53 min and 35 min | 1.66 L/kg and 1.12 L/kg and 1.75 L/kg | 1.33 L/h/kg and 1.17 L/h/kg and 2.81 L/h/kg | 64.8 min and 52 min and 34.7 min | 0.208 µM |  |  |  |  |  |  |  | 
9 | CNC(=O)N1Cc2ccc(Cl)cc2C(C(=O)Nc2cncc3ccccc23)C1 (stereo unspecified) |  |  |  |  |  |  |  |  | 0.272 µM | 0.0976 µg·h/mL and 0.117 µg·h/mL | 0.0949 µg·h/mL and 0.115 µg·h/mL | 0.328 µg/mL and 0.57 µg/mL | 16.4 min and 13.4 min | 14.7 min and 12.5 min | 1.32 L/kg and 0.896 L/kg | 4.82 L/h/kg and 4.09 L/h/kg | 11.5 min and 9.96 min

From the COVID Moonshot data (paper PMC7615835)
